“Also recorded” adds a separate entry of the source. Like-named read-outs stand apart in the source and are kept apart here.
Experiments:
HAT = details: Mantelingu et al 2007; cited from earlier work
p300 HAT = p300 HAT (Homo sapiens, UniProt Q09472); details: Balasubramanyam et al 2003; cited from earlier work
HDAC = details: Balasubramanyam et al 2003; cited from earlier work
[1] = tested on: ethanol-withdrawn SD rats; test: Elevated-plus maze (EPM) test of anxiety-like behaviors in ethanol-withdrawn rats; assay type: in vivo
Procedure: The effect of HDAC inhibition on anxiety-like behaviors of ethanol-withdrawn SD rats after chronic ethanol exposure was assayed using the class I and class II HDAC inhibitor trichostatin A (TSA). SD rats were fed with control or ethanol liquid diet, and ethanol-fed rats were withdrawn for 24 hours as described previously (Pandey et al, Alcohol Clin. Exp. Res. 27:396-409, 2003). Ethanol-withdrawn and control rats were treated with TSA or vehicle (1:5 dilution of DMSO with phosphate-buffered saline) two hours before measuring anxiety-like behaviors using the elevated-plus maze (EPM) test. The EPM is a cross-shaped elevated apparatus consisting of two open arms and two closed arms arranged directly opposite each other and connected to a central platform. To measure anxiety-like behaviors, a test rat was habituated for five-minutes in the test room and then placed on the central platform facing an open arm. The number of entries to each type of arm over a five-minute period was observed and recorded. EPM test results were reported as the mean±SEM of the percent of open-arm entries and the percent of time spent on the open arms. These collectively are referred to as open-arm activity. The general activity of each rat was measured by calculating the sum of open- and closed-arm entries. In the EPM test, ethanol withdrawal after chronic ethanol exposure produced increased anxiety-like behaviors as measured by a reduction in open-arm activities. […]
The effect of Sir-2 inhibition on anxiety-like behaviors in ethanol-withdrawn SD rats after chronic ethanol exposure was assayed by central amygdaloid infusion of the Sir-2 inhibitor, sirtinol. […] Sirtinol (0.5 μl of 25 μM sirtinol) or vehicle (0.5 μl of 0.3% DMSO diluted with artificial CSF) was infused into the CeA of ethanol-withdrawn and control rats, and anxiety was measured after two hours. Anxiety-like behaviors in rats were then measured in the EPM test. […]

Sir-2 = details: Landry et al 2000; Blander et al 2004; cited from earlier work
Sprague-Dawley (SD) rats = details: ethanol 1 g/kg intraperitoneal injection vs n-saline, after one hour
Procedure: (§1) The effect of acute ethanol exposure on HDAC activity, histone acetylation level, and CBP level was measured in Sprague-Dawley (SD) rats. Rats were injected with ethanol (1 g/kg intraperitoneal injection) or n-saline, and after one hour, anxiolytic responses were measured. […] The amygdala was then dissected out, and HDAC activity was measured.

HDACs in the amygdala = details: ethanol 1 g/kg intraperitoneal injection, after one hour
Procedure: as §1

acetylated histone H3 [2] = details: acute ethanol vs n-saline
Procedure: (§2) The protein levels of acetylated histone H3, acetylated histone H4, and CBP in the CeA structures of n-saline- or acute ethanol-treated rats were measured by immunohistochemistry.

CBP [3] = details: acute ethanol vs n-saline
Procedure: as §2

acetylated histone H4 = details: acute ethanol vs n-saline
Procedure: as §2

acetylated histone H3 [4] = test: Acetylated histone H3 protein levels in amygdaloid structures of ethanol-withdrawn rats (gold-immunolabeling); assay type: in vivo; details: for histone H3-K9 acetylation: SAHA 50 mg/kg intraperitoneally, FIG. 3
Procedure: (§3) The effect of HDAC inhibition on acetylated histone H3, CBP, and Sir-2 (HDAC III) level in ethanol-withdrawn SD rats after chronic ethanol exposure was assayed using trichostatin A (TSA). SD rats were fed control or ethanol liquid diet, and ethanol-fed rats were withdrawn for 24 hours. Ethanol-withdrawn and control rats were treated with TSA or vehicle, and protein levels were measured in amygdaloid structures by gold-immunolabeling. In the CeA and MeA, but not in the BLA, ethanol withdrawal produced significant reductions in protein levels of acetylated histone H3 and CBP-HAT, and produced an increase in protein levels of Sir-2. […] Thus, histone acetylation is normalized by TSA treatment due to inhibition of HDAC activity.
In the CeA and MeA, but not in the BLA, ethanol withdrawal produced significant reductions in protein levels of acetylated histone H3-K9.

[5] = tested on: ethanol-withdrawn SD rats; test: Light/dark box exploration test of anxiety-like behaviors in ethanol-withdrawn rats; assay type: in vivo
[6] = tested on: HDAC activity in the amygdala; test: HDAC activity in the amygdala of ethanol-withdrawn rats; assay type: in vivo
Procedure: The effect on HDAC activity in the amygdala of ethanol-withdrawn SD rats after chronic ethanol exposure was measured. SD rats were fed with control or ethanol liquid diet, and ethanol-fed rats were withdrawn for 24 hours. Ethanol-withdrawn and control rats were treated with TSA or vehicle two hours before measuring HDAC activity. Ethanol withdrawal after chronic ethanol exposure produced an increase in HDAC activity in the amygdala of rats.
The effect on HDAC activity in the amygdala of ethanol-withdrawn SD rats after chronic ethanol exposure was measured. SD rats were fed with control or ethanol liquid diet, and ethanol-fed rats were withdrawn for 24 hours. […] Two hours after injections, brains were collected to measure HDAC activity. The nuclear and cytosolic fractions of amygdala were prepared and HDAC activities were measured using an HDAC ELISA kit. Ethanol withdrawal after chronic ethanol exposure produced an increase in nuclear, but not cytosolic, HDAC activity in the amygdala of rats.

Limk1 = Limk1 protein levels in amygdaloid structures of ethanol-withdrawn rats (gold-immunolabeling); assay type: in vivo; details: SAHA 50 mg/kg intraperitoneally, decrease seen in CeA and MeA, FIG. 5
Procedure: The effect on protein levels of Limk1 in the amygdala of ethanol-withdrawn SD rats after chronic ethanol exposure was measured. SD rats were fed with control or ethanol liquid diet, and ethanol-fed rats were withdrawn for 24 hours. […] Brains were collected after perfusion for Limk1 protein level measurement. Protein levels were measured in amygdaloid structures by gold-immunolabeling. Ethanol withdrawal, but not ethanol treatment, produced significant decreases in protein levels of Limk1 in the CeA and MeA, but not in the BLA.

Sir-2 (HDAC III) = test: Sir-2 protein levels in amygdaloid structures of ethanol-withdrawn rats (gold-immunolabeling); assay type: in vivo; details: TSA
Procedure: as §3

[7] = tested on: alcohol-preferring (P) rats; test: Two-bottle voluntary alcohol intake in alcohol-preferring rats; assay type: in vivo; details: TSA 2 mg/kg intraperitoneal daily, last three days of 9% alcohol drinking
Procedure: (§4) The effect of HDAC inhibition on the alcohol consumption of alcohol-preferring (P) and non-preferring (NP) rats was assayed. Selective breeding has produced the P and NP rat lines with high and low alcohol preference, respectively (Li T. K, Lumeng L, Doolittle D P, Behav. Genet. 23:163-170, 1993; McKinzie D L, Nowak K L, Murphy J M, Li T K, Lumeng L, McBride W J, Alcohol Clin. Exp. Res. 22:1584-1590, 1998). P and NP rats were habituated to drink water equally from two bottles. One bottle was then replaced with 7% ethanol for the first three days and 9% ethanol for the next seven days. During the last three days of 9% alcohol drinking, rats were treated with TSA daily (2 mg/kg intraperitoneal injection). […] As a result of the large reduction in voluntary alcohol consumption by the alcohol-preferring animal model when treated with an HDAC inhibitor, it is expected that HDAC inhibitors also prevent the development of alcohol dependence.

[8] = tested on: class I and class II HDACs; details: Yoshida et al 1990; cited from earlier work
NPY = NPY mRNA and protein levels in amygdaloid structures of ethanol-withdrawn rats; assay type: in vivo; details: TSA, reduction seen in CeA and MeA
Procedure: The effect of HDAC inhibition on NPY mRNA and protein levels in ethanol-withdrawn SD rats after chronic ethanol exposure was also assayed using trichostatin A (TSA). SD rats were fed control or ethanol liquid diet, and ethanol-fed rats were withdrawn for 24 hours. Ethanol-withdrawn and control rats were treated with TSA or vehicle, and mRNA and protein levels were measured in amygdaloid structures. In the CeA and MeA, but not in the BLA, ethanol withdrawal produced significant reductions in both mRNA and protein levels of NPY. […] Thus, NPY expression is also normalized by TSA treatment during ethanol withdrawal after chronic ethanol exposure.

CBP [9] = test: CBP protein levels in amygdaloid structures of ethanol-withdrawn rats (gold-immunolabeling); assay type: in vivo; details: TSA
Procedure: as §3

non-preferring (NP) rats = test: Two-bottle voluntary alcohol intake in non-preferring rats; assay type: in vivo; details: TSA 2 mg/kg intraperitoneal daily, last three days of 9% alcohol drinking
Procedure: as §4

Sequence of p300 HAT (Q09472 whole entry, species assumed): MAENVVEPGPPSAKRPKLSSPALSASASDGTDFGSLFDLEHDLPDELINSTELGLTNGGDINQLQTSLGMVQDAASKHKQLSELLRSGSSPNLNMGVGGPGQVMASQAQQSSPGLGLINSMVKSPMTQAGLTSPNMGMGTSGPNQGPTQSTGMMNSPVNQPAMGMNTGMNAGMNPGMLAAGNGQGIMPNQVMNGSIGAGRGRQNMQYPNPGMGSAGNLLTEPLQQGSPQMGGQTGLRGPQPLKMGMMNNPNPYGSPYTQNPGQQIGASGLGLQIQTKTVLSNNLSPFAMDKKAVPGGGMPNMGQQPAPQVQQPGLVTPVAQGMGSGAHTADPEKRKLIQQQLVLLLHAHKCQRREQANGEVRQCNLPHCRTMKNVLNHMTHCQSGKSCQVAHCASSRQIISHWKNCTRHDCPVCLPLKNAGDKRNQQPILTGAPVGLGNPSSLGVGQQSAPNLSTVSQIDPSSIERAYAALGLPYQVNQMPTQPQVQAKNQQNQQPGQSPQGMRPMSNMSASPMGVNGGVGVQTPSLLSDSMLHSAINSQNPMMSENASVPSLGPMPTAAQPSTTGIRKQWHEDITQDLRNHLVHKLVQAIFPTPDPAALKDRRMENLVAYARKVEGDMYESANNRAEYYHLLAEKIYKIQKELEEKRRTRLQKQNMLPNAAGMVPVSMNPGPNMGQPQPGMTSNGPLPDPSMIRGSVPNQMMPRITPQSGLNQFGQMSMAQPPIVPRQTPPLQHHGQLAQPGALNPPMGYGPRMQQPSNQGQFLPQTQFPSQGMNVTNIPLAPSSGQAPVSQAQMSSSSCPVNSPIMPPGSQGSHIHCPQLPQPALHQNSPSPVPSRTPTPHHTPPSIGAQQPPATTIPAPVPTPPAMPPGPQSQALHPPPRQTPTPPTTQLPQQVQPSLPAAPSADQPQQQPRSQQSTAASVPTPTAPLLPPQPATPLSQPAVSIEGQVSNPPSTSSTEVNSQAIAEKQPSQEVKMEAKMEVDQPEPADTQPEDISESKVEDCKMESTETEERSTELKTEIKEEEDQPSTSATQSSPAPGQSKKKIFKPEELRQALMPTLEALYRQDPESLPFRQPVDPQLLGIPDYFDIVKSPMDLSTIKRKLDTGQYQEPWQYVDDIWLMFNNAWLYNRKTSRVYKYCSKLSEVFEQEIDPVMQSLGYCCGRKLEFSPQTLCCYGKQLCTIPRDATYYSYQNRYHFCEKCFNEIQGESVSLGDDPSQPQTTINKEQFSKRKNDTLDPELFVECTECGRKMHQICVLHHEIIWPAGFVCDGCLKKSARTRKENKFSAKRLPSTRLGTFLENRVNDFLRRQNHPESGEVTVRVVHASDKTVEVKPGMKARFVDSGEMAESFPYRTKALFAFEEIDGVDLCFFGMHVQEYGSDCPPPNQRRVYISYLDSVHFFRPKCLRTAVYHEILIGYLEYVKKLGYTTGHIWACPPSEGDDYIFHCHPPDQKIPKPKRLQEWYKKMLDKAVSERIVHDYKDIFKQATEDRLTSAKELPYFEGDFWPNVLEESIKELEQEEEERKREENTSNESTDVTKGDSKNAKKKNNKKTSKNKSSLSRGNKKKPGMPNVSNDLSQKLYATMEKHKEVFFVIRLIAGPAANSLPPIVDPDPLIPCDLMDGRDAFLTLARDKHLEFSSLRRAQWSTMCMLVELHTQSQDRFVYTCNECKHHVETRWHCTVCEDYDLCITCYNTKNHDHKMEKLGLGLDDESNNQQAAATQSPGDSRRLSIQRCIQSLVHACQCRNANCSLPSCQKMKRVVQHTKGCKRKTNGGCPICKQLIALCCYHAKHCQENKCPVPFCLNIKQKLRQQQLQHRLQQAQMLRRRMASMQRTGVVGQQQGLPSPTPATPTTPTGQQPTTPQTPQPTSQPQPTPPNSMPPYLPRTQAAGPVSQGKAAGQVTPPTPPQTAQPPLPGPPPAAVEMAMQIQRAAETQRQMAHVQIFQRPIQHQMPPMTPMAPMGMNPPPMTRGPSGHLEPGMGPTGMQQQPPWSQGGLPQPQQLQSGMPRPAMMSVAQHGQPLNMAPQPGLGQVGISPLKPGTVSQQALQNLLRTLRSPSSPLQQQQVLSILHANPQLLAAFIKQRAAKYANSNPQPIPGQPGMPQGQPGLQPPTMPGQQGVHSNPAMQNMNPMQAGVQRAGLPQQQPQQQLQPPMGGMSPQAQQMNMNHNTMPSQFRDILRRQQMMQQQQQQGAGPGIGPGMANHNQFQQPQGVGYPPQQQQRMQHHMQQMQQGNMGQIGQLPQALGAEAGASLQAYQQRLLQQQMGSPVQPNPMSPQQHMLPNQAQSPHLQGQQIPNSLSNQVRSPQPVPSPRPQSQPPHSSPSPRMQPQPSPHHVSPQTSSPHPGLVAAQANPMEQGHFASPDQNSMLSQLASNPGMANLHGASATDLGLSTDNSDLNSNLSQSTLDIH

In the case of CCOc1ccccc1C(=O)Nc1ccc(Cl)c(C(F)(F)F)c1 [CTB, N-(4-chloro-3-trifluoromethyl-phenyl)-2-ethoxy-benzamide], the HAT activation (HAT) is given as “HAT activators”.
In the case of CCCCCCCCCCCCCCCc1cccc(OCC)c1C(=O)Nc1ccc(Cl)c(C(F)(F)F)c1 [CTPB, N-(4-chloro-3-trifluoromethyl-phenyl)-2-ethoxy-6-pentadecyl-benzamide], the “p300 HAT activity” value (p300 HAT) is given as “activate p300 HAT activity” and the HDAC activity (HDAC) is given as “without affecting HDAC activity”.
For CC(NC(=O)c1ccccc1/N=C/c1c(O)ccc2ccccc12)c1ccccc1 (stereo not shown) [sirtinol], the “anxiety-like behaviors (open-arm activity) in EPM test” value (shortened to “anxiety-like behaviors … in EPM test”) ([1]; 0.5 μl of 25 μM sirtinol infused into the CeA, two hours before test, 24 hours ethanol withdrawal) is listed as “development of these anxiety-like behaviors was prevented” and the “inhibition of Sir-2” value (Sir-2) is listed as “specific inhibitor of Sir-2”.
With CCO [ethanol] the anxiolytic responses (Sprague-Dawley (SD) rats) was “anxiolytic effects”, the “inhibition of HDAC activity in the amygdala compared to n-saline-treated rats” value (HDACs in the amygdala) was 36% and the “protein level of acetylated histone H3” value (acetylated histone H3 [2]; BLA) was “not in basolateral amygdaloid (BLA) structures”. For the same compound, the “protein level of acetylated histone H3” value (acetylated histone H3 [2]; CeA) was “increased protein levels”, the “protein level of acetylated histone H3” value (acetylated histone H3 [2]; MeA) was “increased protein levels” and the “protein level of CBP” value (CBP [3]; BLA) was “not in basolateral amygdaloid (BLA) structures”. The “protein level of CBP” value (CBP [3]; CeA) was “increased protein levels”, the “protein level of CBP” value (CBP [3]; MeA) was “increased protein levels” and the “protein level of acetylated histone H4” value (acetylated histone H4; CeA) was “increased protein levels”. For the same compound, the “protein level of acetylated histone H4” value (acetylated histone H4; MeA) was “increased protein levels”.
With O=C(CCCCCCC(=O)Nc1ccccc1)NO [SAHA, suberoylanilide hydroxamic acid] the “histone H3-K9 acetylation” value (acetylated histone H3 [4]; BLA) was “had no effects on histone H3-K9 acetylation”, the “histone H3-K9 acetylation” value (acetylated histone H3 [4]; CeA and MeA) was “corrected the deficits in histone H3-K9 acetylation” and the “anxiety-like behaviors … in EPM test” value ([1]; SAHA 50 mg/kg intraperitoneally, 24 hours ethanol withdrawal, FIG. 1B) was “prevented these anxiety-like behaviors”. The “anxiety-like behaviors (time spent in the light box)” value ([5]; SAHA 50 mg/kg intraperitoneally, 24 hours ethanol withdrawal, FIG. 1A) was “significantly reduced these anxiety-like behaviors”, the “withdrawal-induced increase in nuclear HDAC activity in the amygdala” value ([6]; SAHA 50 mg/kg intraperitoneally, two hours after injection, nuclear fraction, HDAC ELISA kit, FIG. 2) was “attenuated this increase in nuclear HDAC activity” and the Limk1 protein levels (Limk1) was “normalized Limk1 levels”.
For CC(/C=C/C(=O)NO)=C\[C@@H](C)C(=O)c1ccc(N(C)C)cc1 [TSA, trichostatin A], the “acetylated histone H3 levels” value (acetylated histone H3 [4]; TSA, reduction seen in CeA and MeA) was “rescued acetylated histone H3 levels; also recorded: normalized the reduction in acetylation of histone H3”, the “anxiety-like behaviors … in EPM test” value ([1]; TSA two hours before test, 24 hours ethanol withdrawal after chronic ethanol) was “restored these anxiety-like behaviors to normal levels; also recorded: prevented the development of anxiety-like behaviors” and the “anxiety-like behaviors (time spent in the light box)” value ([5]; TSA, 24 hours ethanol withdrawal after chronic ethanol) was “significantly reduced these anxiety-like behaviors”. The Sir-2 levels (Sir-2 (HDAC III)) was “did not modulate CBP and Sir-2 levels”, the alcohol intake [7] was “significantly attenuated the alcohol intake” and the “inhibition of class I and class II HDACs” value [8] was “potently inhibits class I and class II HDACs”. The “withdrawal-induced increase in HDAC activity in the amygdala” value ([6]; TSA two hours before measurement, 24 hours ethanol withdrawal) was “completely prevented this increase in HDAC activity; also recorded: normalized the increase in HDAC activity”, the “NPY mRNA and protein levels” value (NPY) was “restored NPY levels to normal; also recorded: normalized the reduction in NPY expression” and the CBP levels (CBP [9]) was “did not modulate CBP and Sir-2 levels”. The alcohol intake (non-preferring (NP) rats) was “not in low alcohol-drinking NP rats”.

Source: patent publication US20170105952A1, “HISTONE ACETYL TRANSFERASE ACTIVATORS AND HISTONE DEACETYLASE INHIBITORS IN THE TREATMENT OF ALCOHOLISM” (THE BOARD OF TRUSTEES OF THE UNIVERSITY OF ILLINOIS, priority 2006, published 2017)
